From ChEMBL document CHEMBL1148589, “Rationally designed nucleoside antibiotics that inhibit siderophore biosynthesis of Mycobacterium tuberculosis” (J Med Chem, 2006) come the findings set out here.

Each structure is given as a SMILES string. In brackets after ≈: the same amount, converted by molar mass.

In general, MIC50 refers to the lowest concentration that inhibits either 50% of growth or 50% of the strains tested, depending on the study. A higher MIC50 goes with lower susceptibility. One may read the MIC99 as the lowest concentration that inhibits either 99% of growth or 99% of the strains tested, depending on the study. A lower MIC99 goes with greater potency. Broadly, the pKa is the negative logarithm of the acid dissociation constant. Lower therefore signals a group that gives up its proton readily.

The subject of data set [1] is Mycobacterium tuberculosis. Put plainly: Inhibitory activity against Mycobacterium tuberculosis H37Rv. The data set is classed as functional.
The subject of data set [2] is P388. Kind of data set: Cytotoxicity against P388 murine leukemia cell line at 100-200 uM. The data set is classed as functional. As to conditions: Mus musculus, read-out: ED50 (the source's name).
Data set [3] in a line: Dissociation constant, pKa of the compound. The data set is classed as physicochemical.
Data set [4] is described as follows: Therapeutic index (ED50/MIC50). The data set is classed as cell-based. The settings on record: mouse, P388 cells; read-out: Ratio ED50/MIC50.

With `Nc1ncnc2c1ncn2[C@@H]1O[C@H](Cn2cc(C(=O)c3ccccc3O)nn2)[C@@H](O)[C@H]1O`, in data set [1], the MIC50 is > 100 µM and the MIC99 was > 100 µM. The EC50 in data set [2] was > 100 µg/mL.

As for `Nc1ncnc2c1ncn2[C@@H]1O[C@H](COP(=O)(O)CC(=O)c2ccccc2O)[C@@H](O)[C@H]1O`, in data set [1], the MIC50 is > 100 µM and the MIC99 is > 100 µM. Moreover, the pKa in data set [3] was determined as 2. Moreover, the EC50 in data set [2] was > 100 µg/mL.

For `Nc1ncnc2c1ncn2[C@@H]1O[C@H](COS(=O)(=O)NC(=O)c2ccccc2O)[C@@H](O)[C@H]1O`, in data set [1], the MIC50 amounted to 0.091 µM (≈ 0.0424 µg/mL) and the MIC99 came to 0.29 µM (≈ 0.135 µg/mL). Also, the EC50 in data set [2] was > 100 µg/mL.

`Nc1ncnc2c1ncn2[C@@H]1O[C@H](COS(=O)(=O)NCc2ccccc2O)[C@@H](O)[C@H]1O`: in data set [1], the MIC50 was > 100 µM and the MIC99 was > 100 µM. Besides, in data set [3], the pKa was found to be 8.5. In addition, the EC50 in data set [2] was > 100 µg/mL.

In data set [1], `Nc1ncnc2c1ncn2[C@@H]1O[C@H](CNS(=O)(=O)NC(=O)c2ccccc2O)[C@@H](O)[C@H]1O` had an MIC50 of 0.077 µM (≈ 0.0358 µg/mL) and an MIC99 of 0.19 µM (≈ 0.0884 µg/mL). Also, in data set [4], the selectivity ratio is > 900. Also, the EC50 in data set [2] is > 100 µg/mL.

For `Nc1ccccc1C(=O)NS(=O)(=O)OC[C@H]1O[C@@H](n2cnc3c(N)ncnc32)[C@H](O)[C@@H]1O`, in data set [1], the MIC50 is 30.9 µM (≈ 14.4 µg/mL) and the MIC99 was > 100 µM. The EC50 in data set [2] is > 100 µg/mL.

In data set [1], `Nc1ncnc2c1ncn2[C@@H]1O[C@H](COS(=O)(=O)NC(=O)c2ccccc2)[C@@H](O)[C@H]1O` showed an MIC50 of 4.5 µM (≈ 2.03 µg/mL) and an MIC99 of 12.5 µM (≈ 5.63 µg/mL). This compound also showed a pKa in data set [3] of 2.8. For the same compound, in data set [2], the EC50 is > 100 µg/mL.

`NNC(=O)c1ccncc1` [ISONIAZID]: the MIC99 in data set [1] is 0.18 µM (≈ 0.0247 µg/mL).
